In patent US20100093642A1, “NOVEL POLYPEPTIDES” (priority 2006, published 2010):
Converted amounts (≈) assume the structure as drawn. Residues, ends and D or L forms follow the SMILES beside them. No end group written: not given here.

Key:
[1] = test system: Listonella (Vibrio) anguillarum, serotype O2 (FT 1801); format: cell-based
Summary of the method: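 Peptide fractions were incubated with actively growing bacteria in Mueller Hinton medium at a starting concentration of 3×10^4 cells per ml. Growth was monitored continuously in a Bioscreen C reader; polymyxin B served as reference.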

[2] = test system: Escherichia coli, ATCC 25922; format: cell-based; details: non-clinical isolate; 37° C.; 3×10^6 cells per ml
[3] = test system: Pseudomonas aeruginosa ATCC 27853; format: cell-based; details: non-clinical isolate; 37° C.; 3×10^6 cells per ml
Rhodotorula sp. = details: 48 h
Summary of the method: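 Broth microdilution in half-strength potato dextrose broth, final 2×10^5 spores per ml, peptides in two-fold dilutions from 50 μM to 0.1 μM final. Incubated in the dark without shaking at 25° C. (37° C. for C. albicans) for 48 h; MIC is lowest concentration giving 50% inhibition of visible growth, scored microscopically.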

[4] = test system: human breast malignant carcinoma cell line MCF-7; format: cell-based; details: human, 24 h
[5] = test system: human skin malignant melanoma cell line A2058; format: cell-based; details: human, 24 h

| Compound | Minimal inhibitory concentration, L. anguillarum [1] | Minimal inhibitory concentration, Escherichia coli, ATCC 25922 [2] | Minimal inhibitory concentration, Pseudomonas aeruginosa ATCC 27853 [3] | Minimal inhibitory concentration (MIC), Rhodotorula sp. (Rhodotorula sp.) | IC50 [4] | IC50 [5] |
| --- | --- | --- | --- | --- | --- | --- |
| CC[C@H](C)[C@H](NC(=O)CNC(=O)[C@H](CO)NC(=O)[C@H](CCCCN)NC(=O)[C@@H](NC(=O)[C@H](C)NC(=O)[C@H](Cc1c[nH]cn1)NC(=O)[C@H](CO)NC(=O)[C@@H](NC(=O)[C@H](CCCCN)NC(=O)[C@H](Cc1c[nH]cn1)NC(=O)[C@H](Cc1ccccc1)NC(=O)[C@@H](NC(=O)[C@H](CCCCN)NC(=O)[C@H](CCCCN)NC(=O)[C@H](Cc1ccccc1)NC(=O)C(Cc1c[nH]c2ccc(Br)cc12)NC(=O)CN)[C@@H](C)O)C(C)C)C(C)C)C(=O)N[C@@H](Cc1c[nH]cn1)C(=O)N[C@@H](C)C(=O)NCC(=O)N[C@@H](CCC(N)=O)C(=O)N[C@@H](CCCNC(=N)N)C(=O)NCC(=O)N[C@@H](CS)C(=O)N[C@@H](CO)C(=O)N[C@@H](C)C(=O)N[C@@H](CC(C)C)C(=O)NCC(=O)N[C@@H](Cc1ccccc1)C(=O)O (stereo partly drawn) [P17 HC-Br] (HELM PEPTIDE1{G.[O=C(C(Cc1c[nH]c2ccc(Br)cc12)N[*:1])[*:2]].F.K.K.T.F.H.K.V.S.H.A.V.K.S.G.I.H.A.G.Q.R.G.C.S.A.L.G.F}$$$$V2.0) | 0.78 µM (≈ 2.59 µg/mL) | 6.25 µM (≈ 20.8 µg/mL) | 6.25 µM (≈ 20.8 µg/mL) | 3.12 µM (≈ 10.4 µg/mL) | < 10 µM | < 10 µM |
| GWFKKTFHKVSHAVKSGIHAGQRGCSALGF [P17 HC] | 0.78 µM | 6.25 µM | 6.25 µM | 3.12 µM | < 10 µM | < 10 µM |
